Data on 9 compounds can be found in US5358955A, “Aryl and heteroarylmethoxyphenyl inhibitors of leukotriene biosynthesis” (Abbott Laboratories, priority 1993, dated 1994).

Molecules are shown by their SMILES.

The assay deals with Stimulated LTB4 Formation in Human Polymorphonuclear Leukocytes. The experiment in a line: Inhibition of calcium ionophore-stimulated LTB4 formation in human polymorphonuclear leukocytes (PMNL). Format: cell-based. As to conditions: for IC50: calcium ionophore 8.3 μM.3 μM, 15 min preincubation, 37° C, read-out: IC50, In Vitro Inhibitory Potencies Against Stimulated LTB4 Formation in Human Polymorphonuclear Leukocytes. As to the method: Inhibition of leukotriene biosynthesis was evaluated in an assay involving calcium ionophore-induced LTB4 expressed in human polymorphornuclear leukocytes (PMNL). Human PMNL isolated from heparinized (20 USP units/mL) venous blood (25 mL) obtained from healthy volunteers was layered over an equal volume of Ficoll-Hypaque Mono-Poly Resolving Medium (ICN Flow, Costa Mesa, CA) and centrifugated at 400 × g for 40 min at 20° C. The PMNL was collected, erythrocytes lysed and washed 2× and suspended at 1.0×10^7 cells/mL in Earle's balanced salt solution with 17 mM Earle's HEPES. Aliquots of the cell suspension were preincubated with test compounds dissolved in DMSO (final concentration <2%) for 15 min. and stimulated with calcium ionophore (final concentration 8.3 μM) for 10 min. at 37° C. Incubations were stopped with the addition of two volumes of ice-cold methanol followed by centrifuging the cell suspensions at 4° C. for 10 min at 450×g. The amount of LTB4 in the methanol extract was analyzed by enzyme-linked linked immunoassay or by HPLC analysis.

One may read the IC50 as the concentration at which inhibition is half-maximal. As to `CNOC(=O)C(c1ccc(OCc2ccc3ccccc3n2)cc1)C1CCCCC1` (stereo not drawn) [Example 15, N-Methyl-O-{2-cyclohexyl-2-[4-(quinolin-2-yl-methoxy)phenyl]-acetyl}-hydroxylamine], the IC50 was found to be 95 nM.

For `CNOC(=O)C(CC1CCCCC1)c1ccc(OCc2ccccn2)cc1` (stereo not drawn) [Example 14, N-Methyl-O-{3-cyclohexyl-2-[4-(pyrid-2-yl-methoxy)phenyl]propionyl}-hydroxylamine], the concentration for half-maximal inhibition (IC50) turned out to be 1650 nM. Consider `CN(C)OC(=O)C(CC1CCCCC1)c1ccc(OCc2ccc3ccccc3n2)cc1` (stereo not drawn) [Example 17], for which the IC50 was determined as 45 nM. Same read-out and setting: with `CN(O)C(=O)C=NOC(CCCc1ccc(Cl)cc1)c1ccc(OCc2ccc3ccccc3n2)cc1` (stereo not drawn) [Example 6, {[4-(4-Chlorophenyl)-1-(4-[2-quinolinylmethoxy]phenyl)butyl]iminoxy}acetic acid N-hydroxy-N-methyl-amide] the figure was 132 nM. On to `CN(O)C(=O)CSC(CCCc1ccc(Cl)cc1)c1ccc(OCc2ccc3ccccc3n2)cc1` (stereo not drawn) [Example 1, {[4-(4-Chlorophenyl)-1-(4-[2-quinolinylmethoxy]phenyl)butyl]thio}acetic acid (N-hydroxy-N-methyl)amide], for which, for the setting “at ~0.095 μmol, calcium ionophore 8.3 μM”, the “% Inhibition, Stimulated LTB4 Formation in Human Polymorphonuclear Leukocytes” value was 63%. `CNOC(=O)C(CC1CCCCC1)c1ccc(OCc2ccc3ccccc3n2)cc1` (stereo not drawn) [Example 13, N-Methyl-O-{3-cyclohexyl-2-[4-(quinolin-2-yl-methoxy)phenyl]-propionyl}-hydroxylamine]: the IC50 amounted to 68 nM. Consider `CN(O)C(=O)CON=C(CCCc1ccc(Cl)cc1)c1ccc(OCc2ccc3ccccc3n2)cc1` [Example 2, [(4-(4-Chlorophenyl)-1-(4-(2-quinolinylmethoxy)phenyl)butyl)oximino]acetic acid (N-hydroxy-N-methyl)amide], for which the IC50 is 66 nM. On the same count and under the same terms, with `CN(O)C(=O)C(CC1CCCCC1)c1ccc(OCc2ccc3ccccc3n2)cc1` (stereo not drawn) [Example 3, 3-Cyclohexyl-2-[4-(quinolin-2-yl-methoxy)phenyl]propionic acid (N-hydroxy-N-methyl)amide] the figure was 64 nM; with `CN(O)C(=O)C(c1ccc(OCc2ccc3ccccc3n2)cc1)C1CCCCC1` (stereo not drawn) [Example 8, 2-Cyclohexyl-2-[4-(quinolin-2-yl-methoxy)phenyl]acetic acid N-hydroxy-N-methyl-amide], 33 nM.
